Test [1] deals with Ramos cells. Briefly: Detection of cell death in Ramos cells, viability by propidium iodide staining. The conditions noted are these: 24 hours, 2% FBS, PI 1 μg/mL, FIG. 1. The test is classed as cell-based. As to the method: (§1) Ramos cells were exposed to the following compounds:
Cell viability was assessed by staining with propidium iodide (PI, 1 μg/mL).

For test [2], the system named is Ramos cells. The test is described as follows: Ramos cells exposed to compounds, O2- detected with dihydroethidium (DHE). The conditions noted are these: 1 hour, 2% FBS, FIG. 2. The test is classed as cell-based. How it is done: as §1
To detect O2^−, cells were incubated with dihydroethidium (DHE).

For another test, the target named is F1F0-ATPase. The conditions noted are these: F1F0-ATPase inhibition; cited from earlier work.

pIC50: −log10 of the molar value.

For the compound `CC1CN(c2ccc(O)cc2)c2cc(Cl)ccc2N(Cc2ccc3ccccc3c2)C1=O` (stereo not drawn) [GD-423], the “cellular death (cell viability by propidium iodide staining)” value in the test on Ramos cells [1] is listed as “causes cell death”. Besides, in the test with Ramos cells [2], the “cellular death (O2- detection with dihydroethidium)” value was “causes cell death”.
In general, pIC50 refers to the IC50 on a negative log10 scale, so that one unit is a factor of ten. For the compound `CC[C@H]1/C=C/C=C/C[C@@H](C)[C@H](O)[C@@](C)(O)C(=O)[C@@H](C)[C@H](O)[C@@H](C)C(=O)[C@@H](C)[C@H](O)[C@@H](C)/C=C/C(=O)O[C@@H]2[C@H](C)[C@H](CC1)O[C@]1(CC[C@H](C)[C@H](C[C@@H](C)O)O1)[C@H]2C` [oligomycin], the pIC50 on F1F0-ATPase is 8.00.

The record behind these values is patent US7638624B2, “Compositions and methods relating to novel benzodiazepine compounds and derivatives” (The Regents of the University of Michigan, priority 2005, dated 2009).
